Converted amounts (≈) assume the structure as drawn.
Legend:
[1] = test system: 6'-acetyltransferase; conditions: cited from earlier work
[2] = test system: resistant bacteria producing the 2"-nucleotidyltransferase; conditions: prior compounds; cited from earlier work
[3] = test system: Escherichia coli JR 66/W677; assay: Minimum inhibitory concentration, serial dilution on nutrient agar; format: cell-based; conditions: JR66/W677; Escherichia coli JR 66/W677; nutrient agar, 37° C., 18 hours; read-out: Minimum Inhibitory Concentrations
Procedure: (§1) The minimum inhibitory concentrations (mcg/ml.) of 1-N-(L-4-amino-2-hydroxybutyryl)-kanamycin C (abbreviated as AHB-KC), 1-N-(L-4-amino-2-hydroxybutyryl)-3'-deoxykanamycin C (abbreviated as AHB-DKC) and 1-N-(L-4-amino-2-hydroxybutyryl)-3',4'-dideoxykanamycin C (abbreviated as AHB-DDKC) against various microorganisms were determined according to serial dilution method on nutrient agar medium at 37° C., the estimation being effected after 18 hours incubation. For comparison, the minimum inhibitory concentrations of 1-N-(L-4-amino-2-hydroxybutyryl)-kanamycin A (amikacin) was also determined in the same manner as described above.

[4] = test system: Escherichia coli NIHJ; assay: as above; format: cell-based; conditions: 37° C., 18 hours, read-out: Minimum Inhibitory Concentrations
Procedure: as §1

[5] = test system: Klebsiella pneumoniae 22 No. 3038; assay: as above; format: cell-based; conditions: Klebsiella pneumoniae 22 No. 3038; nutrient agar, 37° C., 18 hours; read-out: Minimum Inhibitory Concentrations
Procedure: as §1

[6] = test system: Escherichia coli K-12 ML 1629; assay: as above; format: cell-based; conditions: K12ML1629, 37° C., 18 hours, read-out: Minimum Inhibitory Concentrations
Procedure: as §1

[7] = test system: Pseudomonas aeruginosa H 11; assay: as above; format: cell-based; conditions: H11, 37° C., 18 hours, read-out: Minimum Inhibitory Concentrations
Procedure: as §1

[8] = test system: Klebsiella pneumoniae PCI 602; assay: as above; format: cell-based; conditions: PCI602, 37° C., 18 hours, read-out: Minimum Inhibitory Concentrations
Procedure: as §1

[9] = test system: Escherichia coli LA 290 R56; assay: as above; format: cell-based; conditions: LA290R56, 18 h, read-out: Minimum Inhibitory Concentrations
Procedure: as §1

[10] = test system: Mycobacterium smegmatis ATCC 607; assay: as above; format: cell-based; conditions: Mycolicibacterium smegmatis, ATCC607, 37° C., 18 hours, read-out: Minimum Inhibitory Concentrations
Procedure: as §1

[11] = test system: Escherichia coli K-12; assay: as above; format: cell-based; conditions: K12, 37° C., 18 hours, read-out: Minimum Inhibitory Concentrations
Procedure: as §1

[12] = test system: Pseudomonas aeruginosa GN 315; assay: as above; format: cell-based; conditions: GN315, 37° C., 18 hours, read-out: Minimum Inhibitory Concentrations
Procedure: as §1

[13] = test system: Pseudomonas aeruginosa No. 12; assay: as above; format: cell-based; conditions: Pseudomonas aeruginosa No. 12; nutrient agar, 37° C., 18 hours; read-out: Minimum Inhibitory Concentrations
Procedure: as §1

[14] = test system: Escherichia coli W 677; assay: as above; format: cell-based; conditions: W677, 37° C., 18 hours, read-out: Minimum Inhibitory Concentrations
Procedure: as §1

[15] = test system: Staphylococcus aureus FDA 209P; assay: as above; format: cell-based; conditions: FDA209P, 37° C., 18 hours, read-out: Minimum Inhibitory Concentrations
Procedure: as §1

[16] = test system: Escherichia coli K-12 ML 1630; assay: as above; format: cell-based; conditions: K12ML1630, 37° C., 18 hours, read-out: Minimum Inhibitory Concentrations
Procedure: as §1

[17] = test system: Pseudomonas aeruginosa A3; assay: as above; format: cell-based; conditions: Pseudomonas aeruginosa A3; nutrient agar, 37° C., 18 hours; read-out: Minimum Inhibitory Concentrations
Procedure: as §1

[18] = test system: Pseudomonas aeruginosa TI-13; assay: as above; format: cell-based; conditions: TI13; Pseudomonas aeruginosa TI-13; nutrient agar, 37° C., 18 hours; read-out: Minimum Inhibitory Concentrations
Procedure: as §1

[19] = test system: Escherichia coli LA 290 R55; assay: as above; format: cell-based; conditions: LA290R55, 18 h, read-out: Minimum Inhibitory Concentrations
Procedure: as §1

[20] = test system: Escherichia coli K-12 R5; assay: as above; format: cell-based; conditions: K12R5, 18 h, read-out: Minimum Inhibitory Concentrations
Procedure: as §1

[21] = test system: Escherichia coli K-12 ML 1410; assay: as above; format: cell-based; conditions: K12ML1410, 37° C., 18 hours, read-out: Minimum Inhibitory Concentrations
Procedure: as §1

[22] = test system: Escherichia coli K-12 ML 1410 R81; assay: as above; format: cell-based; conditions: 18 h, read-out: Minimum Inhibitory Concentrations
Procedure: as §1

[23] = test system: Escherichia coli LA 290 R64; assay: as above; format: cell-based; conditions: LA290R64, 18 h, read-out: Minimum Inhibitory Concentrations
Procedure: as §1

[24] = test system: Pseudomonas aeruginosa 99; assay: as above; format: cell-based; conditions: 37° C., 18 hours, read-out: Minimum Inhibitory Concentrations
Procedure: as §1

[25] = LD50 upon intravenous injection in mice; conditions: mouse, in vivo, estimated
[26] = test system: resistant bacteria producing the aminoglycoside 6'-acetyltransferase; conditions: cited from earlier work
[27] = test system: resistant bacteria producing aminoglycoside 3'-phosphotransferase; conditions: cited from earlier work

NCCC(O)C(=O)NC1CC(N)C(OC2OC(CN)C(O)C(O)C2N)C(O)C1OC1OC(CO)C(O)C(N)C1O [1-N-(L-4-amino-2-hydroxybutyryl)-kanamycin B]
acetylation by a 6'-acetyltransferase ([1]; enzyme obtained from aminoglycoside-resistant strains, such as Pseudomonas aeruginosa GN315): acetylated

NC1CC(N)C(OC2OC(CO)C(O)C(N)C2O)C(O)C1OC1OC(CO)C(O)C(O)C1N (stereo not drawn) [kanamycin C]
inactivation by the 6'-acetyltransferase ([1]; see co-pending applications): cannot be inactivated
growth inhibition of resistant bacteria producing the 2"-nucleotidyltransferase [2]: not able to inhibit the growth

NC1CCC(CO)OC1OC1C(N)CC(N)C(OC2OC(CO)C(O)C(N)C2O)C1O (stereo not drawn) [3',4 '-dideoxykanamycin C, 3',4'-dideoxykanamycin C]
growth inhibition of resistant bacteria producing the 2"-nucleotidyltransferase [2]: not able to inhibit the growth

NCCC(O)C(=O)NC1CC(N)C(OC2OC(CO)C(O)C(O)C2N)C(O)C1OC1OC(CO)C(O)C(N)C1O [AHB-KC, 1-N-(L-4-amino-2-hydroxybutyryl)-kanamycin C]
MIC [3]: 25 µg/mL (≈ 42.7 µM)
MIC [4]: 6.25 µg/mL (≈ 10.7 µM)
MIC [5]: 12.5 µg/mL (≈ 21.3 µM)
MIC [6]: 6.25 µg/mL (≈ 10.7 µM)
MIC [7]: 100 µg/mL (≈ 171 µM)
MIC [8]: 3.13 µg/mL (≈ 5.34 µM)
MIC [9]: 6.25 µg/mL (≈ 10.7 µM)
MIC [10]: 3.13 µg/mL (≈ 5.34 µM)
MIC [11]: 12.5 µg/mL (≈ 21.3 µM)
MIC [12]: 50 µg/mL (≈ 85.4 µM)
MIC [13]: 50 µg/mL (≈ 85.4 µM)
MIC [14]: 12.5 µg/mL (≈ 21.3 µM)
MIC [15]: 6.25 µg/mL (≈ 10.7 µM)
MIC [16]: 12.5 µg/mL (≈ 21.3 µM)
MIC [17]: 12.5 µg/mL (≈ 21.3 µM)
MIC [18]: 50 µg/mL (≈ 85.4 µM)
MIC [19]: 12.5 µg/mL (≈ 21.3 µM)
MIC [20]: 6.25 µg/mL (≈ 10.7 µM)
MIC [21]: 25 µg/mL (≈ 42.7 µM)
MIC [22]: 12.5 µg/mL (≈ 21.3 µM)
MIC [23]: 12.5 µg/mL (≈ 21.3 µM)
MIC [24]: 100 µg/mL (≈ 171 µM)
LD50 [25]: > 400 mg/kg

NCC1CCC(N)C(OC2C(N)CC(N)C(OC3OC(CO)C(O)C(N)C3O)C2O)O1 (stereo not drawn) [3',4'-dideoxykanamycin B]
growth inhibition of resistant bacteria producing the 2"-nucleotidyltransferase [2]: do not inhibit the growth
growth inhibition of resistant bacteria producing the aminoglycoside 6'-acetyltransferase [26]: do not inhibit the growth
activity against resistant bacteria producing aminoglycoside 3'-phosphotransferase [27]: active against the resistant bacteria
